Measured values as given in ChEMBL document CHEMBL3988442, “University of Dundee, Small-Polar-MMV Screening Library” (2021).
Several values for one entry are separate records, joined by “and”; a condition that tells them apart may be missing. Equal entries are not always repeated.

How the values were obtained:
[1] = target: AMP-activated protein kinase, AMPK; test: AMP-dependent Kinase enzyme assay. An in vitro enzyme assay that detects ADP turnover that is directly proportional to AMPK activity. This uses naive AMPK that is activated during the assay with MK-8722; format: functional, Homo sapiens
Leishmania donovani = test: Leishmania intramacrophage assay; format: functional, organism-based; conditions: for IC50: Leishmania donovani
Trypanosoma brucei = test: Trypanosoma brucei 72 hour study; format: functional, organism-based; conditions: for IC50: Trypanosoma brucei, 72 h
[2] = In vitro enzyme assay to detect hydrolysis of chlorophenol red-beta-D-[…] directly proportional to the number of Toxoplasma stably expressing beta-galactosidase; format: functional, organism-based, Toxoplasma gondii; conditions: for IC50: Toxoplasma gondii
[3] = microbe, parasite or virus in culture; conditions: Mycobacterium tuberculosis, 96 h, read-out: pIC50 (converted)
[4] = microbe, parasite or virus in culture; conditions: Mycobacterium tuberculosis, 72 h, read-out: pIC50 (converted)
Plasmodium falciparum = test: Calibr Malaria Delayed Death Assay SOP; format: functional, organism-based; conditions: for IC50: Plasmodium falciparum
ClpP1P2 = ClpP1P2 (Mycobacterium tuberculosis (strain ATCC 25618 / H37Rv), UniProt P9WPC3+P9WPC5); test: in vitro assay to detect presence of AMC directly proportional to the activity of ClpP1P2. GHDDI collaboration.; format: functional
Sequence of ClpP1P2 (P9WPC5 whole entry): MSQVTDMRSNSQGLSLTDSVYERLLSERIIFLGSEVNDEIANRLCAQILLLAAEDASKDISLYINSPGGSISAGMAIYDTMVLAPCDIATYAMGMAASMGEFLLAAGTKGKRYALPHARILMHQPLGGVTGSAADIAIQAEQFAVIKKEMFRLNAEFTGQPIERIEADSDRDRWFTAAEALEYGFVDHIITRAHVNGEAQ
Sequence of ClpP1P2 (P9WPC3 whole entry): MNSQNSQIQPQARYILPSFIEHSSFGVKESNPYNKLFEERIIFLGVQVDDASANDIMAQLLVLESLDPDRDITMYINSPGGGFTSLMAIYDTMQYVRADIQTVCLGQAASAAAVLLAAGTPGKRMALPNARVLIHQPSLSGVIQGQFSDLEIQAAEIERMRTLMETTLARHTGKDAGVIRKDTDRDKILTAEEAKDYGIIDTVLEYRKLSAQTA

[5] = test system: Mycobacterium tuberculosis; test: Cornell M. t heat shock assay; format: functional, organism-based; conditions: for IC50: Mycobacterium tuberculosis
[6] = target: T1, Coenzyme A biosynthesis bifunctional protein CoaBC (Mycobacterium tuberculosis (strain ATCC 25618 / H37Rv), UniProt P9WNZ1); test: Biomol Green assay for MtCoaBC inhibitor, OD650 read; format: functional
T1 sequence (P9WNZ1 whole entry): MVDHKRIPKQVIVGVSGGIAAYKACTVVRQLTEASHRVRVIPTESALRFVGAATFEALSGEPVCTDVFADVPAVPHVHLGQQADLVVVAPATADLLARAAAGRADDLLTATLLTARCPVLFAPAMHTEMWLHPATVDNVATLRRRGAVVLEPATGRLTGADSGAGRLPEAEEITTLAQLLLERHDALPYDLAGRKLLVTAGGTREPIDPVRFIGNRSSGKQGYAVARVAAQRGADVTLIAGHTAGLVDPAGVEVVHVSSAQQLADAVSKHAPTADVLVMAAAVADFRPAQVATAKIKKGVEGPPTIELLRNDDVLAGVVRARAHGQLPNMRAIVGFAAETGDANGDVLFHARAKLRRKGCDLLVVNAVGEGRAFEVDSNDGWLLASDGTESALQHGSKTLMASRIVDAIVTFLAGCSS

Histidine--tRNA ligase [7] = target: T2, Histidine--tRNA ligase (Leishmania infantum, UniProt A4I591); test: Leishmania infantum Histidine tRNA synthetase (LdHisRS); format: functional
T2 sequence (A4I591 whole entry): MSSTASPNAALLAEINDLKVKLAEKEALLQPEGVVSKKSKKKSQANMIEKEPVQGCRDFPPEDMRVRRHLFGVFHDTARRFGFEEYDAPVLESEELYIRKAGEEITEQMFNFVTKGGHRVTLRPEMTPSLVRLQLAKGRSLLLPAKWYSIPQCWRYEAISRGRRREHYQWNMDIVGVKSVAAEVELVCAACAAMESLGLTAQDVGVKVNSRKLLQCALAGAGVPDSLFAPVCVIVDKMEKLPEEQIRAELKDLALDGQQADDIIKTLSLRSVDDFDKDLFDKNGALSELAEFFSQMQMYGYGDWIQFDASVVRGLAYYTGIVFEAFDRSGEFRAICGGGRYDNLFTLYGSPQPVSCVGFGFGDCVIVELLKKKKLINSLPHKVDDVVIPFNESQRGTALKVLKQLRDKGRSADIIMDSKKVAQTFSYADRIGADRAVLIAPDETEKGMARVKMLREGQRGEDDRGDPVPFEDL

Histidine--tRNA ligase [8] = target: T3, Histidine--tRNA ligase (Trypanosoma cruzi (strain CL Brener), UniProt Q4DA54); test: Trypanosoma cruzi histidyl tRNA synthetase (Tc-HisRS); format: functional
T3 sequence (Q4DA54 whole entry): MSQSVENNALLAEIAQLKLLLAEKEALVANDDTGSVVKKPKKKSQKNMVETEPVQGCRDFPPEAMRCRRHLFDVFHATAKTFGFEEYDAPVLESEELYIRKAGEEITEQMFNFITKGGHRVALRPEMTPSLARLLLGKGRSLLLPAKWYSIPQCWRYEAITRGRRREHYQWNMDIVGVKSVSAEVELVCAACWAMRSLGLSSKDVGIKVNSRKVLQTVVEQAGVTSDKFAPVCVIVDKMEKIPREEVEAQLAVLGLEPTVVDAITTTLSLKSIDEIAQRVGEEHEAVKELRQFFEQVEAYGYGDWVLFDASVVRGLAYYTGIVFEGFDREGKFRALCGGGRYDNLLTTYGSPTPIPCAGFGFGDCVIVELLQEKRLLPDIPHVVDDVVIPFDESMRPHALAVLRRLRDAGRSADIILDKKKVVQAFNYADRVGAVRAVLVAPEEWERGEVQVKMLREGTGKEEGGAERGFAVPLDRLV

Tryptophan--tRNA ligase = Tryptophan--tRNA ligase (Mycobacterium tuberculosis (strain ATCC 25618 / H37Rv), UniProt P9WFT3); test: Biochemical assay for Mt-TrpRS; format: functional
Sequence of Tryptophan--tRNA ligase (P9WFT3 whole entry): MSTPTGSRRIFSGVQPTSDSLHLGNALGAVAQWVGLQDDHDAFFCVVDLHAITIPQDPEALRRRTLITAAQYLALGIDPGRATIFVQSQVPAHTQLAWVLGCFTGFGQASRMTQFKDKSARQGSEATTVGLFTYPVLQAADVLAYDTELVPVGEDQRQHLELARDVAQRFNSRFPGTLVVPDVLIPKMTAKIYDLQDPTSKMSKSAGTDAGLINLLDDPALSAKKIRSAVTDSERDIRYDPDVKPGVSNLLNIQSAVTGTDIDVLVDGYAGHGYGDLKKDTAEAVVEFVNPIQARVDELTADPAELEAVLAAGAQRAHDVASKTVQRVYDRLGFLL

Wolbachia pipientis = test: Anti-Wolbachia Cell-Based Screen; format: functional

Structure (SMILES)	pIC50 [1]	pIC50 (Leishmania donovani)	IC50 (Leishmania donovani) [µM]	pIC50 (Trypanosoma brucei)	IC50 (Trypanosoma brucei) [µM]	further results
O=C1CN(C(=O)c2cc3ccc(Br)cc3[nH]2)CCN1	< 4					
COc1cc(CNC2CCCc3c2cnn3C)cc(OC)c1.Cl (centres undefined)	< 4					
CCc1cc(=O)[nH]c(-n2nc(C3CC3)cc2NC(=O)C2CC2)n1		4.573	29.8	5.404 and 5.398	3.41	pIC50 [2]: 5.904; IC50 [2]: 1.58 µM; IC50 [3]: 11.4 µM; IC50 [4]: 12.5 µM
c1cc(-c2ccc3c(c2)C2(CCNCC2)CC3)ccn1	< 4					
O=C(c1cc(-c2ccn(CC3CC3)n2)n2ccccc12)N1CCOCC1		4.802	18.9	5.586 and 5.592 and 5.253		pIC50 (Plasmodium falciparum): 5.917; IC50 (Plasmodium falciparum): 1.01 µM; IC50 (ClpP1P2): > 100 µM; IC50 [3]: > 50.1 µM; IC50 [4]: 27.8 µM
C[C@H]1C[C@@H]2CCN(Cc3ccccn3)C[C@H]2O1	< 4					
COc1cc(C(=O)N2CCCC(CNS(C)(=O)=O)C2)cc(OC)c1C (centres undefined)	< 4					
Cl.NC1CCc2nc(-c3cccnc3)nc(Nc3ccc(F)cc3)c2C1 (centres undefined)		5.001	8.3	5.072 and 4.886	7.84	pIC50 (Plasmodium falciparum): 6.698; IC50 (Plasmodium falciparum): 0.204 µM; pIC50 [5]: 4.893; IC50 [5]: 6.43 µM; IC50 [3]: 48.6 µM; IC50 [4]: 22.2 µM
CCN(Cc1c(F)cccc1Cl)c1cc(C2CCNCC2)nc(C)n1		5.445	3.56	5.239 and 5.238	4.96	IC50 [2]: 4.56 µM; pIC50 (Plasmodium falciparum): 6.254; IC50 (Plasmodium falciparum): 0.495 µM; IC50 [3]: 24.4 µM; IC50 [4]: 37.4 µM
Cc1cc(C)n(CCCn2cncc2-c2ccc3c(c2)CC(C)N3C)n1.Cl (centres undefined)				4.689 and 4.712	28.9	IC50 [6]: > 30.2 µM; IC50 (Histidine--tRNA ligase [7]): 23.7 µM and 22.2 µM; pIC50 (Plasmodium falciparum): 5.88; IC50 (Plasmodium falciparum): 1.59 µM; pIC50 [5]: 4.037; IC50 [5]: 76.7 µM; IC50 (ClpP1P2): > 100 µM
CC(C)c1cc(NC(=O)c2ccc([S+]([O-])C(C)C)cc2)[nH]n1 (centres undefined)	5.533 and 5.17					
Cc1nc(C2(O)CCCNCC2)sc1CCOc1ccc(Cl)cc1.Cl (centres undefined)		4.792	8.46	5.216 and 5.242	5.07	IC50 [2]: 11 µM
CO[C@@H]1CC[C@H]2[C@H]1OCCN2C(=O)c1ccc(C)o1	< 4					
FC1(F)CCN(Cc2cccnc2)CC12CCN(c1ccccc1)C2.O=C(O)C(F)(F)F.O=C(O)C(F)(F)F.O=C(O)C(F)(F)F (centres undefined)				5.234 and 5.17	6.05	IC50 [6]: > 30.2 µM; IC50 (Histidine--tRNA ligase [7]): 13.6 µM and 18.6 µM; pIC50 (Plasmodium falciparum): 5.955; IC50 (Plasmodium falciparum): 1.16 µM; IC50 [3]: 12.5 µM; IC50 [4]: 43.8 µM
Cc1ccc(NC(=O)c2cc(S(=O)(=O)N3CCCCC3)c[nH]2)cc1F	< 4					
CN(C)S(=O)(=O)NC1CCCc2c1cnn2-c1ccc(C(C)(C)C)cc1 (centres undefined)	< 4					
CN(Cc1cccc(O)c1)CC1CCCN(CCc2ccc(Cl)cc2)C1 (centres undefined)		5.277 and 4.854		5.504 and 5.492	3.82	pIC50 (Plasmodium falciparum): 6.224; IC50 (Plasmodium falciparum): 0.634 µM
CCc1csc(C2CCCN(C(=O)c3cnn(CC)c3)C2)n1 (centres undefined)	< 4					
Cc1ccc2c(n1)N(C)CCN(C(=O)NC1CC1)C2.O=C(O)C(F)(F)F	< 4					
CC1COCCN1Cc1nc(-c2cccs2)no1 (centres undefined)	< 4					
CCn1nc(C)c2ccn(CC(=O)NC3CCCC3)c(=O)c21	< 4					
Cc1cnn(CC2CN(Cc3nnc(C4CC4)o3)CCO2)c1 (centres undefined)	< 4					

Structure (SMILES)	pIC50 [1]	pIC50 (Leishmania donovani)	IC50 (Leishmania donovani) [µM]	pIC50 (Trypanosoma brucei)	IC50 (Trypanosoma brucei) [µM]	further results
CCOc1cc(C)nc(N2CCN(C(=O)CC)CC2)n1	< 4					
CN(C)c1nc2sc(C(=O)N3CCN(C(=O)OC(C)(C)C)CC3)cc2s1	< 4					
Cc1[nH]/c(=N\C(=O)c2csc(NCC(C)C)n2)sc1C		4.614	19.4	5.208 and 5.15	6.25	IC50 [2]: 4.62 µM
CCc1cc(C)c(C(=O)N2CCCC2CC(=O)c2cnn(C)c2)o1 (centres undefined)	< 4					
CC(C)c1cc(C(=O)NCCc2nc(-c3cccnc3)n[nH]2)[nH]n1	4.471 and 4.569 and 4.528 and 4.581					
Cc1cc(-c2cnc(NC3CC3)nc2-c2ccoc2)on1	< 4					
CC(C)c1cc(=O)[nH]c(-n2nc(C3CC3)cc2N)n1		4.627	40.3	5.692 and 5.673	2.09	pIC50 [2]: 6.102 and 5.757; IC50 [5]: 4.63 µM; IC50 [3]: 11.5 µM; IC50 [4]: 12.5 µM
CCn1ncc(-c2cc(C(F)(F)F)nc(N3CCC(N)CC3)n2)c1C			11.9	5.225 and 5.224	5.74	IC50 (Histidine--tRNA ligase [8]): > 100 µM; pIC50 [2]: 5.222 and 5.563; IC50 [3]: > 50.1 µM; IC50 [4]: > 50.1 µM
CN(C)C(=O)Cc1nc(CN2CCCCC2Cn2cccn2)cs1 (centres undefined)	< 4					
Cc1occc1-c1nc(NC2CCCC2)ncc1-c1ccccn1	< 4					
COc1cc(-c2cccc3c2OC(CN)C3)ccc1O (centres undefined)	4.656 and 4.577					
O=C(CN1CC(n2cccn2)C1)NCCc1c[nH]c2ccccc12	< 4					
CCOc1cccc2c1OCC(C(=O)NS(=O)(=O)c1ccc(Cl)cc1)=C2	< 4					
CN(C)S(=O)(=O)c1ccc(-c2nc(C#N)c(NC(C)(C)C)o2)o1.Cl			> 50.1	4.737 and 4.726	18.4	IC50 [2]: 7.65 µM; IC50 [5]: 11.3 µM; IC50 (ClpP1P2): > 100 µM
Cc1nc(C2(O)CCCNCC2)sc1CCOc1ccc(F)c(F)c1.Cl (centres undefined)		4.936	11.6	5.175 and 5.131	6.99	IC50 (Tryptophan--tRNA ligase): > 195 µM
COc1c(C)cnc(CN(C)C2CCCCC2)c1C		4.733	13.3	5.179 and 5.161	6.48	pIC50 [2]: 5.219; IC50 [2]: 4.88 µM; pIC50 (Wolbachia pipientis): 5.441; IC50 (Wolbachia pipientis; Wolbachia pipientis): 6.39 µM
COc1ccc2[nH]cc(-c3ccnc(NC4CCCC4)n3)c2c1		4.561	21.8	5.019 and 4.85	14.6	IC50 [2]: 2.65 µM
CCCOc1ccccc1CCCNc1ncnc2oc(C)nc12		4.492 and 4.801		5.583 and 5.61	4.09	IC50 [3]: > 50.1 µM; IC50 [4]: 25.4 µM
Nc1cc(N2CCC(c3cc(Cc4ccccc4)n[nH]3)CC2)ccn1		4.671	17.4	5.138 and 5.184	6.85	pIC50 [2]: 5.141; IC50 [2]: 4.92 µM; IC50 (Histidine--tRNA ligase [7]): 69.6 µM and 73.8 µM
CCCc1cc(=O)[nH]c(-n2nc(C3CC3)cc2N)n1		4.51	39.6	5.268 and 5.368	5.23	pIC50 [2]: 5.649; IC50 [2]: 1.95 µM; IC50 [5]: 6.14 µM; IC50 [3]: 23.8 µM; IC50 [4]: 16.1 µM
Cl.NC1CCc2nc(-c3ccncc3)nc(Nc3cccc(F)c3)c2C1 (centres undefined)		5.181	5.99	5.636 and 5.623	2.41	IC50 [2]: 3.66 µM; IC50 (Histidine--tRNA ligase [7]): 46.3 µM and 51.2 µM; pIC50 [5]: < 4; IC50 [5]: 50.4 µM
